In experiment [1] the target is T1, Plk1 PBD (Homo sapiens, UniProt P53350). Description: biochemical. The class given is binding. More on the design: and Plk1 PBD (Plasmid #41162) (45) linked to a 3× myc tagged; host or cells: HEK293T, crude cytosolic lysate. As to conditions: Cell Lysate ELISA IC50 (μM). On the procedure:
HEK293T cells were plated on 10 cm culture dishes at 4M cells per plate. Following 24 h, the cells were transfected with 10 μg of plasmid DNA using 20 μL of TurboFect transfection reagent (Pierce Biotechnology) according to the manufacturer's instructions. Following 24 h, the cells were harvested using trypsin, washed with phosphate-buffered saline (PBS) 7.4 buffer, and lysed in lysis buffer (PBS 7.4+0.5% NP-40+protease/phosphatase inhibitor cocktail (Pierce Biotechnology)) using 3 freeze/thaw cycles. The lysed suspension was centrifuged at 10,000×G for 10 minutes to pellet membrane proteins and nuclei. The supernatant was removed to provide a crude cytosolic lysate containing expressed myc-tagged Plk1 or Plk1 PBD. The total protein concetration was determined using a Bicinchoninic Acid (BCA) assay kit (Pierce Biotechnology).
All assay steps were performed at room temperature with gentle shaking. A biotinylated phosphopeptide (sequence: Biotin-Ahx-PMQS(pT)PLN-NH2) (46-48) was diluted with PBS 7.4 to 1 μM (from a 10 mM dimethylsulfoxide (DMSO) stock solution) and loaded onto the wells of a 96-well Neutravidin-coated plate (Pierce Biotechnology) at 100 μL per well for 1 hour. The wells were washed once with 150 μL PBST (PBS 7.4+0.05% Tween-20), and then 100 μL of 1% bovine serum albumin (BSA) in PBS 7.4 (blocking buffer) were added for 1 hour. The cytosolic lysate containing myc-tagged protein was diluted to 300 μg/mL in PBS 7.4 containing protease/phosphatase inhibitors (Pierce Biotechnology), mixed with competitive inhibitor (from a 10× stock in 5% DMSO/PBS), and allowed to pre-incubate for 1 h (100 μL per well in a 96-well plate, 30 μg total protein). The blocked ELISA plate was washed 2× with PBST (150 μL) and the pre-incubated lysates were added to the plate to incubate for 1 hour. The wells were washed 4× with PBST (150 μL), then probed with anti-myc primary antibody (1:1500 dilution for assays that include macrocyclic peptidomimetic ligand of the present disclosure and 1:3000 dilution for all other assays, mouse monoclonal, Pierce Biotechnology) for 1 hour. […] The wells were then washed 5× with PBST (150 μL) and incubated with Turbo TMB-ELISA solution (Pierce Biotechnology) until the desired absorbance is reached (5-10 minutes). The reaction was quenched by the addition of 2M aq. H2SO4 and the absorbance was measured at 450 nm using a BioTek Synergy 2 96-well plate reader.
Compounds were evaluated for inhibition of Plk1 PBD binding to a pThrcontaining peptide by ELISA in cell lysates and by inhibition of cell proliferation in HeLa cells. Pmab=2(S)-amino-3(R)-methyl-4-phosphonobutanoic acid.
On the technique in general: ELISA stands for enzyme-linked immunosorbent assay.
Target sequence in this assay (P53350 326-603 limits assumed): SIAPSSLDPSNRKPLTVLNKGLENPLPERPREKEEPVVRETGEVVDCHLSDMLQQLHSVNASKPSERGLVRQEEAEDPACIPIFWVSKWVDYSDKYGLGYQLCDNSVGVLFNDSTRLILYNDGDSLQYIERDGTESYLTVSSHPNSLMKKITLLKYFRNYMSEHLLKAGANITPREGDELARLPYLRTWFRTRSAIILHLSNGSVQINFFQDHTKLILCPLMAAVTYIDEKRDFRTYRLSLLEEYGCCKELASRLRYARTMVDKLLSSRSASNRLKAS

Experiment [2] addresses T2, full-length Plk1 (Homo sapiens, UniProt P53350).
T2 construct: Plasmids encoding full length Plk1 (Plasmid #41160); host or cells: HEK293T, crude cytosolic lysate
Description: ELISA inhibition assay: full-length Plk1 binding to immobilized pThr-containing peptide. As to conditions: FIG. 5A/5B.

The target in experiment [3] is T1, Plk1 PBD. The class given is binding. More on the design: host or cells: HEK293T, crude cytosolic lysate. As to conditions: average ± SEM from five independent experiments.
Target sequence in this assay (P53350 whole entry): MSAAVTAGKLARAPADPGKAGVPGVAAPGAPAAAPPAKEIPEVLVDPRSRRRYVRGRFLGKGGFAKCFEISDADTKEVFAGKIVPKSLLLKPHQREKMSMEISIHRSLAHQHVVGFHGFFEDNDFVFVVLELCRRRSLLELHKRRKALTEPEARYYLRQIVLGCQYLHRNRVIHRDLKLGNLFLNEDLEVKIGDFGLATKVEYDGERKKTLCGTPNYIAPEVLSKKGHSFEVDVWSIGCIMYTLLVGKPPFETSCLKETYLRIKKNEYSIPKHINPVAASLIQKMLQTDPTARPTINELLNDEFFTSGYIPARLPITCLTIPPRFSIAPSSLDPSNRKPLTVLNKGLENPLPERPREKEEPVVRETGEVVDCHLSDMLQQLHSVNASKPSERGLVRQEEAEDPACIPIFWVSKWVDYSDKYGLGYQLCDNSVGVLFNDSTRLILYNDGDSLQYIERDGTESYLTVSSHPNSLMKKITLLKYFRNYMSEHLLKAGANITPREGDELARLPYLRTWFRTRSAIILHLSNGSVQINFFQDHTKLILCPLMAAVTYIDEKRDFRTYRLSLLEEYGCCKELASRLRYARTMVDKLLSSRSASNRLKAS
Description: All assay steps were performed at room temperature with gentle shaking. A biotinylated phosphopeptide (sequence: Biotin-Ahx-PMQS(pT)PLN-NH2) (46-48) was diluted with PBS 7.4 to 1 μM (from a 10 mM dimethylsulfoxide (DMSO) stock solution) and loaded onto the wells of a 96-well Neutravidin-coated plate (Pierce Biotechnology) at 100 μL per well for 1 hour. The wells were washed once with 150 μL PBST (PBS 7.4+0.05% Tween-20), and then 100 μL of 1% bovine serum albumin (BSA) in PBS 7.4 (blocking buffer) were added for 1 hour. The cytosolic lysate containing myc-tagged protein was diluted to 300 μg/mL in PBS 7.4 containing protease/phosphatase inhibitors (Pierce Biotechnology), mixed with competitive inhibitor (from a 10× stock in 5% DMSO/PBS), and allowed to pre-incubate for 1 h (100 μL per well in a 96-well plate, 30 μg total protein). […] The wells were then washed 5× with PBST (150 μL) and incubated with Turbo TMB-ELISA solution (Pierce Biotechnology) until the desired absorbance is reached (5-10 minutes). […] H2SO4 and the absorbance was measured at 450 nm using a BioTek Synergy 2 96-well plate reader.
Absorbance was plotted versus concentration (log M) and fit to a non-linear regression using GraphPad Prism 6 software (model: log(inhibitor) vs. response—Variable slope (four parameters)) to provide IC50 values. […]
[4] abbreviates: Table 7, compounds 2 and 3 tested simultaneously for direct comparison.

A word on the IC50: it is the concentration that inhibits the measured activity by half.

Where two headings read alike, the source gives them in different places. Peptide text beside a SMILES is read from it.

T2 sequence (P53350 whole entry): as above

With `CC(=O)N1CCCC1C(=O)N[C@@H](CC(C)C)C(=O)N[C@@H](Cc1cncn1CCc1ccccc1)C(=O)N[C@@H](CO)C(=O)NC(C(N)=O)C(C)OP(=O)(O)O` (stereo in doubt) [compound 3], the IC50 in experiment [1] (Table 6) came to 0.017 µM; in experiment [1] (setting [4]), 0.023 µM.

For `CC(=O)N1CCC[C@H]1C(=O)N[C@@H](CC(C)C)C(=O)N[C@H]1C[C@H](CCCCCCCCc2ccccc2)C(=O)NCCC[C@@H](C(N)=O)NC(=O)[C@H]([C@@H](C)OP=O)NC(=O)[C@H](CO)NC1=O` (some centres unmarked) [15a, cPLE*SpTO] (HELM PEPTIDE1{[ac].P.L.[O=C([C@H](C[C@H](CCCCCCCCc1ccccc1)C(=O)[*:3])N[*:1])[*:2]].S.[C[C@@H](OP=O)[C@H](N[*:1])C(=O)[*:2]].[Orn].[am]}$PEPTIDE1,PEPTIDE1,4:R3-7:R3$$$V2.0), in experiment [2], the “inhibitory potency in competitive ELISA versus parent peptide 1 (4j)” value is given as “improved potencies versus the parent peptide 1”.

With `CC(=O)N1CCC[C@H]1C(=O)N[C@@H](CC(C)C)C(=O)N[C@H]1C[C@H](CCCCCCCCc2ccccc2)C(=O)NCCC[C@@H](C(N)=O)NC(=O)[C@H]([C@@H](C)OP=O)NC(=O)[C@H](CO)NC1=O` (some centres unmarked) [15b, cPLE*SpTo] (HELM PEPTIDE1{[ac].P.L.[O=C([C@H](C[C@H](CCCCCCCCc1ccccc1)C(=O)[*:3])N[*:1])[*:2]].S.[C[C@@H](OP=O)[C@H](N[*:1])C(=O)[*:2]].[Orn].[am]}$PEPTIDE1,PEPTIDE1,4:R3-7:R3$$$V2.0), the “inhibitory potency in competitive ELISA versus parent peptide 1 (4j)” value in experiment [2] is reported as “dramatic reductions in potency”.

`CC(=O)N1CCC[C@H]1C(=O)N[C@@H](CC(C)C)C(=O)N[C@H]1C[C@H](CCCCCCCCc2ccccc2)C(=O)NCCCC[C@@H](C(N)=O)NC(=O)[C@H]([C@@H](C)OP=O)NC(=O)[C@H](CO)NC1=O` (some centres unmarked) [15c, cPLE*SpTK] (HELM PEPTIDE1{[ac].P.L.[O=C([C@H](C[C@H](CCCCCCCCc1ccccc1)C(=O)[*:3])N[*:1])[*:2]].S.[C[C@@H](OP=O)[C@H](N[*:1])C(=O)[*:2]].K.[am]}$PEPTIDE1,PEPTIDE1,4:R3-7:R3$$$V2.0): the “inhibitory potency in competitive ELISA versus parent peptide 1 (4j)” value in experiment [2] is given as “improved potencies versus the parent peptide 1”.

In the case of `CC(=O)N1CCC[C@H]1C(=O)N[C@@H](CC(C)C)C(=O)N[C@H]1C[C@H](CCCCCCCCc2ccccc2)C(=O)NCCCC[C@H](C(N)=O)NC(=O)[C@H]([C@@H](C)OP=O)NC(=O)[C@H](CO)NC1=O` (some centres unmarked) [15d, cPLE*SpTk] (HELM PEPTIDE1{[ac].P.L.[O=C([C@H](C[C@H](CCCCCCCCc1ccccc1)C(=O)[*:3])N[*:1])[*:2]].S.[C[C@@H](OP=O)[C@H](N[*:1])C(=O)[*:2]].[dK].[am]}$PEPTIDE1,PEPTIDE1,4:R3-7:R3$$$V2.0), the “inhibitory potency in competitive ELISA versus parent peptide 1 (4j)” value in experiment [2] is on record as “dramatic reductions in potency”.

The compound `CC(=O)N1CCC[C@H]1C(=O)N[C@@H](CC(C)C)C(=O)N[C@@H](Cc1cncn1CCCCCCCCc1ccccc1)C(=O)N[C@@H](CO)C(=O)N[C@H](C(N)=O)[C@@H](Cc1ccccc1)CP(=O)(O)O` [18d] (HELM PEPTIDE1{[ac].P.L.[O=C([C@H](Cc1cncn1CCCCCCCCc1ccccc1)N[*:1])[*:2]].S.[O=C([C@@H](N[*:1])[C@@H](Cc1ccccc1)CP(=O)(O)O)[*:2]].[am]}$$$$V2.0; N-terminus assumed) came in with a half-inhibitory concentration (IC50) in experiment [3] of 300 ± 80 nM.

Compound `CC(=O)N1CCC[C@H]1C(=O)N[C@@H](CC(C)C)C(=O)N[C@@H](Cc1cncn1CCCCCCCCc1ccccc1)C(=O)N[C@@H](CO)C(=O)N[C@H](C(N)=O)[C@@H](CCc1ccccc1)CP(=O)(O)O` [18e] (HELM PEPTIDE1{[ac].P.L.[O=C([C@H](Cc1cncn1CCCCCCCCc1ccccc1)N[*:1])[*:2]].S.[O=C([C@@H](N[*:1])[C@@H](CCc1ccccc1)CP(=O)(O)O)[*:2]].[am]}$$$$V2.0; N-terminus assumed) gave an IC50 in experiment [3] of 70 ± 20 nM.

`CC(=O)N1CCCC1C(=O)N[C@@H](CC(C)C)C(=O)N[C@@H](Cc1cncn1CCc1ccccc1)C(=O)N[C@@H](CO)C(=O)NC(C(N)=O)C(C)CP(=O)(O)O` (some centres unmarked) [compound 4]: the half-maximal inhibitory concentration (IC50) in experiment [1] (Table 6) is 0.02 µM.

Turning to `CC(=O)N1CCCC1C(=O)N[C@@H](CC(C)C)C(=O)N[C@@H](Cc1cnc[nH]1)C(=O)N[C@@H](CO)C(=O)NC(C(N)=O)[C@@H](Cc1ccccc1)CP(=O)(O)O` (some centres unmarked) [compound 15] (HELM PEPTIDE1{[ac].[O=C(C1CCCN1[*:1])[*:2]].L.H.S.[O=C(C(N[*:1])[C@@H](Cc1ccccc1)CP(=O)(O)O)[*:2]].[am]}$$$$V2.0), the IC50 in experiment [1] (setting [4]) is 50 µM.

`CC(=O)N1CCCC1C(=O)N[C@@H](CC(C)C)C(=O)N[C@@H](Cc1cncn1CCc1ccccc1)C(=O)N[C@@H](CO)C(=O)NC(C(N)=O)[C@@H](Cc1ccccc1)CP(=O)(O)O` (some centres unmarked) [compound 16]: the IC50 in experiment [1] (setting [4]) came out at 0.035 µM.
